Measurements taken from US6730704B2, “1-(aryloxy)propionoyl-2-arylsulfonyl hydrazines, process for preparation thereof and use thereof as hypoglycemic agents” (Council of Scientific & Industrial Research, priority 2002, dated 2004).

Experiments:
[1] = test system: Streptozotocin induced diabetic rats; assay: Hypoglycemic activity in Streptozotocin induced diabetic rats; type: in vivo; conditions: Streptozotocin (50 mg/kg i.v.) diabetic Wistar rats; Glibenclamide 1 mg/kg daily for 14 days; vs reading before drug administration
Procedure: Hypoglycemic Activity in Streptozotocin Induced Diabetic Rats:
Wistar rats of either sex weighting 150-180 gms were used in this study and were divided into control, standard and test groups each consisting of 6 rats. Basal glucose levels were taken for all rats. Diabetes was induced by administering Streptozotocin in the dose of 50 mg/kg intravenously to the rats in all the groups. After a period of 48 hrs glucose levels were again measured and rats that have shown glucose levels of 400±20 mg/dl were selected. Glibenclamide (1 mg/kg) and the test compounds (50 mg/kg) were administered as 1% gum acacia suspension daily for a period of 14 days. At the end of 14 days after the last dose, blood glucose levels were again measured and the percent reduction in blood glucose was measured for all the rats in all the groups with respect to the initial reading before drug administration.

normoglycemic rats = assay: Hypoglycemic activity in normal rats; type: in vivo; conditions: fasted normal Wistar rats; Glibenclamide 5 mg/kg per oral; reduction vs basal glucose, measured 1-6 hr, time of value not stated
Procedure: Hypoglycemic Activity in Normal Rats:
Wistar rats of either sex weighing 150-180 gms were fasted overnight and divided into control, standard and test groups each consisting of 6 rats. The standard drug, Glibenclamide, was administered in the dose of 5 mg/kg per oral to the rats. All test compounds were administered in the dose of 200 mg/kg per oral to the test groups. Both standard and test drugs were administered as 1% gum acacia suspension. Control group received vehicle only. Blood glucose levels were measured before drugs administration at 0 hr and at 1 hr, 2 hr, 4 hr and 6 hr after drugs administration. Percent reduction of blood glucose levels at different time intervals was calculated with reference to basal glucose levels. All the blood glucose estimations were done using GOD/POD method and were analyzed using Auto Blood Analyzer (Technicon RA-1000, Bayer Diagnostics, Ireland). The standard drug (Glibenclamide) has shown a percent inhibition of glucose 65.1 and all the test compounds (1 to 9 examples) have shown percent inhibition in range of 48.5 to 63.2 (FIG. 1)

## COc1ccc(Cl)cc1C(=O)NCCc1ccc(S(=O)(=O)NC(=O)NC2CCCCC2)cc1 [Glibenclamide]
[1]
  hypoglycemic activity expressed as percent inhibition of blood glucose levels: 68.2%
Normoglycemic rats
  percent inhibition of glucose: 65.1%
